Measurements as given in publication PMC12737022, “Evaluations of Sex Differences in Dosimetry in Rats Following Perfluorohexanesulfonamide (PFHxSA) Oral Exposure” (Toxics, 2025).
In brackets after ≈: the same amount, converted by molar mass. Several values for one entry are separate records, joined by “and”; a condition that tells them apart may be missing. Equal entries are not always repeated.

Experiments:
[1] = In vitro-in vivo extrapolation (IVIVE) to estimate Css, human; settings: for Css (steady-state concentration) / CL renal: Human; for Css (steady-state concentration): IVIVE-derived, assumes 1 mg/kg/day exposure; for CL renal: non-metabolic, GFR x fub, read-out: Clrenal (renal clearance) (converted); for Predicted Css in humans higher than rats: cross-species IVIVE comparison
Description: Intrinsic hepatic clearance (Clint) and fraction unbound in plasma (fup) were calculated from the experimental point estimate data as described in Dobreniecki et al.. Steady-state concentrations (Css) were derived based on zero-order uptake of an assumed daily dose from the gut (assuming 100% intestinal bioavailability) but considering hepatic clearance and non-metabolic renal clearance. Renal clearance was calculated using the glomerular filtration rate (a species-dependent constant) and the fraction unbound in blood (fub), estimated by adjusting the experimental fup for blood/plasma partitioning. The Css calculations, along with underlying species-specific physiologic scalars, are detailed in SI Texts S6 and S7. […]
hepatocytes). In equation (C), the scalar 2000 is used to adjust the assay cell number to be consistent with units of 1 million cells in the Clint equation.
Text S7 In Vitro-In Vivo Extrapolation (IVIVE) Calculations
The pharmacokinetic equation used to estimate expected steady-state concentrations (Css) is based on zero-order uptake of a daily dose from the gut (assuming 100% bioavailability) with both nonmetabolic renal clearance (Clrenal) and hepatic clearance (Clhepatic) (Equation D). The chemical input rate (ko) is the product of the intake dosage and the model body weight; this represents the numerator of Equation D. The Clrenal calculation is shown in the first part of the denominator of Equation D; it is the product of the species-dependent glomerular filtration rate (GFR) and the unbound fraction in blood (fub) of the parent compound. The Clhepatic calculation is shown in the second part of the denominator of Equation D; it is the product of the species-dependent liver blood flow constant, the fub of the parent compound, and the experimentally derived intrinsic clearance (shown in Equation C) divided by the sum of these three values. All values used in Equation D are for first-order conditions of metabolism in the […]

[2] = design: method as in PMID 37756184; settings: bariatric surgery patients; cited from earlier work
[3] = Solubility and stability of PFHxSA corn oil dosing solutions; assay type: physicochemical; settings: for Replicate percent recoveries, Day 5 / Replicate percent recoveries, Day 7 / Replicate percent recoveries, Day 14: relative to Day 0
Description: The stability of PFHxSA corn oil dosing solutions was also evaluated up to 14 days. PFHxSA solutions were prepared using the same lot number of the chemical as was used in Mutlu et al.. Solutions were prepared under an inert atmosphere at a 20,000 µg/mL (20 mg/mL) high-dose solution and a 2 µg/mL ([…]) low-dose solution to mimic the range of concentrations of the dosing formulations used for the in vivo study. Each batch included an MB and an LCS prepared from blank corn oil as QC. The solutions were split into two aliquots each. One aliquot was stored at 4 °C; the other aliquot was stored at room temperature, with both protected from light. The stability samples were analyzed in triplicate on Days 0, 5, 7, and 14 using the same extraction method and LC/MS/MS conditions outlined in SI Texts S2 and S3, respectively. Stability was assessed by using mean peak areas to calculate the percent recovery for each day of analysis relative to Day 0. Information on percent recovery calculation and additional experimental details concerning the stability study may be found in SI Text S2.
Text S1 Solvents and Additives for Analytical Chemistry
Solvents used for sample preparation and mobile phases include methanol (MeOH), water (H2O), and acetonitrile (ACN), which were LC/MS-grade and purchased from Honeywell Burdick & Jackson (Charlotte, NC, USA). Ammonium formate (BioUltra purity) and ammonium acetate (99% pure) were used as mobile phase additives and obtained from Millipore Sigma (St. Louis, MO, USA). Formic acid (FA; 97.5% pure) was also used as an additive; it was purchased from Honeywell Fluka. Detailed information for chemicals used for each analysis may be found in Table S1.
Text S2 Dosing-Solution Determination and Stability Assessment
Dosing solutions were extracted by liquid–liquid extraction using 50 uL aliquots of the dosing solutions and 950 uL of 0.1M formic acid in acetonitrile, vortexing the mixture at 2000 rpm, and centrifuging at 5400 × g for 10 minutes. The supernatants were drawn off and added to Waters Oasis Prime HLB 3cc 60mg (Waters, Milford, MA, USA) solid phase extraction (SPE) cartridges. Supernatants were allowed to elute through the cartridge via gravity. Finally, 100 uL of eluent was diluted using 100 uL of 1% formic acid in water. Extracts were further diluted with the extracted method blank (corn oil) to bring the concentrations to within the calibration range. Sample extracts were analyzed using the same LC/MS/MS method outlined for PFHxSA plasma and liver in Text S4. Samples were quantitated against a matrix-matched calibration curve containing a minimum of 5 points spanning 50-500 ng/mL in extract. […]
verification (CCV) sample and laboratory control sample (LCS) were injected at the start and end of each analytical batch to confirm the validity of the calibration curve and sample quantitation. Acceptance criteria for the CCV and LCS were readback concentrations ± 30% of nominal concentration. The method blank acceptance criterion was a readback concentration of PFHxSA < 0.5x the limit of quantitation (LOQ) of the method. The LOQ was 50 ng/mL in the extract. Samples were injected in sequential order (e.g., r01, r02, r03, …, etc.); no duplicate injections of samples were performed.
Assessment of the stability of PFHxSA in corn oil was conducted using the same extraction method as for dosing solutions. Analysis of PFHxSA in corn oil was conducted using the same LC/MS/MS conditions as PFHxSA dosimetry in plasma and liver (Text S4). The average ratio of PFHxSA peak area to PFOSA internal standard peak area for three replicate injections was divided by the average ratio for Day 0 to derive the percentage of recovery for a given day. No calibration curve was generated for the Stability Assessment. For quality control, the extraction blank needed to have a PFHxSA signal that was ≤ 10% the peak area of PFHxSA on Day 0; the daily LCS was acceptable with a PFHxSA/PFOSA area ratio within 30% of the Day 0 LCS. […]

rats = settings: cited from earlier work
[4] = system: cytochrome P450 (CYP450) hepatic metabolism enzyme isoforms 3A2, 4A1, and 2J4; design: method as in Mutlu et al. [55]; settings: ref Mutlu et al. [55], cited from earlier work

O=S(=O)(O)C(F)(F)C(F)(F)C(F)(F)C(F)(F)C(F)(F)C(F)(F)F [PFHxS, perfluorohexane sulfonic acid]
Css (steady-state concentration) [1]: 669 µM
CL renal [1]: 0.183 mL/min
Predicted Css in humans higher than rats [1]: 3- to 10 fold
IVIVE-derived Css lower for PFHxS compared to PFHxSA ([1]; human): 2.25 fold
Human liver/plasma partitioning Kp [2]: 0.12

NS(=O)(=O)C(F)(F)C(F)(F)C(F)(F)C(F)(F)C(F)(F)C(F)(F)F [PFHxSA, Perfluorohexanesulfonamide]
Css (steady-state concentration) [1]: 1510 µM
CL renal [1]: 0.0817 mL/min
Predicted Css in humans higher than rats [1]: 3- to 10 fold
Stability of corn oil solutions ([3]; 2 µg/mL to 20,000 µg/mL, within ±30% of the initial value, up to 14 days, room and refrigerated (4 °C) temperatures): stable
MeanD14 (mean of percent recoveries for Day 14 replicates) ([3]; corn oil 2 µg/mL, 4 °C): 79.3%
Replicate percent recoveries, Day 5 ([3]; corn oil 2 µg/mL, 4 °C): 90.8% and 94.3% and 97.9%
Replicate percent recoveries, Day 7 ([3]; corn oil 2 µg/mL, 4 °C): 78.3% and 79.5% and 79.3%
Replicate percent recoveries, Day 14 ([3]; corn oil 2 µg/mL, 4 °C): 77.3% and 77.6% and 83.0%
MeanD14 (mean of percent recoveries for Day 14 replicates) ([3]; corn oil 2 µg/mL, RT): 97.3%
Replicate percent recoveries, Day 5 ([3]; corn oil 2 µg/mL, RT): 97.4% and 96.8% and 96.1%
Replicate percent recoveries, Day 7 ([3]; corn oil 2 µg/mL, RT): 81.3% and 85.5% and 80.6%
Replicate percent recoveries, Day 14 ([3]; corn oil 2 µg/mL, RT): 97.0% and 93.3% and 102%
MeanD14 (mean of percent recoveries for Day 14 replicates) ([3]; corn oil 20,000 µg/mL, 4 °C): 128%
Replicate percent recoveries, Day 5 ([3]; corn oil 20,000 µg/mL, 4 °C): 110% (2×) and 119%
Replicate percent recoveries, Day 7 ([3]; corn oil 20,000 µg/mL, 4 °C): 119% and 118% and 116%
Replicate percent recoveries, Day 14 ([3]; corn oil 20,000 µg/mL, 4 °C): 130% and 126% and 128%
MeanD14 (mean of percent recoveries for Day 14 replicates) ([3]; corn oil 20,000 µg/mL, RT): 88.6%
Replicate percent recoveries, Day 5 ([3]; corn oil 20,000 µg/mL, RT): 97.3% and 103% and 98.1%
Replicate percent recoveries, Day 7 ([3]; corn oil 20,000 µg/mL, RT): 90.1% and 94.3% and 88.4%
Replicate percent recoveries, Day 14 ([3]; corn oil 20,000 µg/mL, RT): 88.0% and 87.2% and 90.5%
solubility ([3]; corn oil, oil or lipid): 20 mg/mL (≈ 50.1 mM)
Doses at which transcriptional pathway changes are observed in multiple tissues (rats): less than 1 mg/kg/day
Benchmark dose for relative liver weight changes (rats; rats, ref Auerbach et al. [40]): 16.25 mg/kg/day
Exposures at which mortality was observed in a 5-day study (rats; ref Auerbach et al. [40]): above 100 mg/kg/d
Increase in mRNAs of CYP450 isoforms 3A2, 4A1, and 2J4 ([4]; rat liver): ≥ 2 fold
Lowest observed transcriptional effect level, CYP450 isoforms 3A2, 4A1, and 2J4 [4]: 30 mg/kg/day
